Results: patent US5225559A, “Diarylmethoxypiperidine derivatives” (Ube Industries, Ltd., priority 1990, dated 1993)
Counter-ions that a name gives are not always drawn.

Key:
[1] = tested on: ileum shrinkage induced by histamine; assay: inhibitory effect of the test compounds on the ileum shrinkage induced by histamine; assay type: cell-based, guinea pigs; conditions: Cavia porcellus; test compound 10^-7 M; histamine 10^-5 M; isolated ileum, Magnus tank, Tyrode solution; read-out: Inhibition ratio against shrinkage by histamine
Protocol: (§1) Ileum samples removed from guinea pigs were suspended isotonically in a Magnus tank containing a 95% O2 and 5% CO2 saturated Tyrode solution to determine inhibitory effect of the test compounds (10^-7 M) on the ileum shrinkage induced by histamine (10^-5 M) or leukotoriene (10^-8 M). The inhibitory ratio (%) was determined by the following formula. [formula]

[2] = tested on: ileum shrinkage induced by leukotoriene; assay: inhibitory effect of the test compounds on the ileum shrinkage induced by leukotriene; assay type: cell-based, guinea pigs; conditions: Cavia porcellus; test compound 10^-7 M; leukotoriene 10^-8 M; isolated ileum, Magnus tank, Tyrode solution; read-out: Inhibition ratio against shrinkage by leukotriene
Protocol: as §1

Structure (SMILES)	inhibition at 0.1 µM [1]	inhibition at 0.1 µM [2]
C=CCc1c(OCCCN2CCC(OC(c3ccccc3)c3ccccc3)CC2)ccc2c(=O)cc(C(=O)OCCCC)oc12 [Example 41]	31%	31%
COC(=O)c1ccc(OCCCN2CCC(OC(c3ccccc3)c3ccccc3)CC2)cc1 [Example 14]	69%	39%
C=CCc1c(OCCCN2CCC(OC(c3ccccc3)c3ccccc3)CC2)ccc2c(C)cc(=O)oc12 [Example 7]	67%	51%
COC(=O)c1cc(=O)c2cc(C(C)C)cc(NC(=O)CCCN3CCC(OC(c4ccc(F)cc4)c4ccc(F)cc4)CC3)c2o1 [Example 60]	58%	37%
C=CCc1c(OCC(O)CN2CCC(OC(c3ccc(Cl)cc3)c3ccccn3)CC2)ccc(C(C)=O)c1O (stereo not drawn) [Example 47]	38%	36%
COc1cc(C(C)=O)ccc1OCCCN1CCC(OC(c2ccccc2)c2ccccc2)CC1 [Example 2]	96%	30%
C=CCc1c(OCCCN2CCC(OC(c3ccc(Cl)cc3)c3ccccn3)CC2)ccc(C(C)=O)c1O (stereo not drawn) [Example 38]	32%	33%
CCCc1c(OCC(O)CN2CCC(OC(c3ccc(F)cc3)c3ccc(F)cc3)CC2)ccc(C(C)=O)c1O (stereo not drawn) [Example 44, 1-{(3-(4-acetyl-3-hydroxy-2-n-propylphenoxy)-2-hydroxy]propyl}-4-[bis(4-fluorophenyl)methoxy]piperidine fumarate]	43%	35%
CCCc1c(OCC(O)CN2CCC(OC(c3ccc(Cl)cc3)c3ccccn3)CC2)ccc(C(C)=O)c1O (stereo not drawn) [Example 45]	40%	30%
